Experimental data: PMC4306950 (Marine Drugs, 2015)

Experiments:
[1] = target: T1, hKv1.6 (HEK cells transiently transfected with hKv1.6:eGFP) (Homo sapiens, UniProt P17658); assay: Whole-cell patch-clamp electrophysiology on Kv1.6; format: cell-based; conditions: for block of Kv1.6 at 100 nM: HEK cells transiently transfected with hKv1.6:eGFP, patched 19 h after transfection, peptide 100 nM
T1 construct: expressed in transfected cells; host or cells: HEK cells, transient, Lipofectamine 2000 (plasmid a gift from Dr. Heike Wulff)
Protocol: The HEK cells were patched 19 h after transfection.
(§1) Chips averaged 2–3.5 MΩ and a holding potential of −80 mV was used for all recordings. Series resistance compensation of 80% was used when currents exceeded 2 nA. The external solution was normal Ringer solution containing (in mM): 160 NaCl, 4.5 KCl, 2 CaCl2, 1 MgCl2, 10 Hepes, pH 7.4, 310 mOsm. The internal solution contained (in mM): 145 KF, 10 HEPES, 10 EGTA (ethylene glycol tetraacetic acid), 2 MgCl2, pH 7.2, 300 mOsm. Currents were elicited by repeated 200 ms pulses to 40 mV applied at intervals of 30 s for Kv1.3 and 10 s for Kv1.1. IC50 values were determined by fitting the Hill equation to the reduction of area under the current curve measured at 40 mV in the presence of different concentrations of the peptides (GraphPad Prism software, La Jolla, CA, USA).

[2] = target: T2, mKv1.3 channels stably expressed in mouse L929 fibroblasts (Mus musculus, UniProt P16390); assay: Whole-cell patch-clamp electrophysiology on Kv1.3; format: cell-based; conditions: mKv1.3 in L929 fibroblasts, 200 ms pulses to 40 mV every 30 s, holding -80 mV, Hill fit, n = 3 to 6 cells per concentration
T2 construct: expressed in transfected cells
Protocol: Mouse fibroblasts stably expressing homotetramers of Kv1.1 or Kv1.3 were patch-clamped in the whole-cell configuration and steady-state block was measured after addition of different concentrations of the peptides.
as §1

[3] = target: T3, Kv1.4 (mouse LTK fibroblasts stably transfected with Kv1.4) (Homo sapiens, UniProt P22459); assay: Whole-cell patch-clamp electrophysiology on Kv1.4; format: cell-based; conditions: for block of Kv1.4 at 100 nM: mouse LTK fibroblasts stably transfected with Kv1.4, peptide 100 nM
T3 construct: expressed in transfected cells

[4] = system: acute adoptive EAE, animal model of MS mediated by T lymphocytes; conditions: cited from earlier work
Text: The Kv1.3 channel was discovered in the early 1980’s by the Chandy and Cahalan labs at the University of California Irvine and the Deutsch lab at the University of Pennsylvania. This K^+ channel, found in T lymphocytes, was the first to be described outside electrically excitable tissues. […] Kv1.3 in T lymphocytes is a voltage-gated homotetrameric membrane protein responsible for controlling the me ...

T1 sequence (P17658 whole entry): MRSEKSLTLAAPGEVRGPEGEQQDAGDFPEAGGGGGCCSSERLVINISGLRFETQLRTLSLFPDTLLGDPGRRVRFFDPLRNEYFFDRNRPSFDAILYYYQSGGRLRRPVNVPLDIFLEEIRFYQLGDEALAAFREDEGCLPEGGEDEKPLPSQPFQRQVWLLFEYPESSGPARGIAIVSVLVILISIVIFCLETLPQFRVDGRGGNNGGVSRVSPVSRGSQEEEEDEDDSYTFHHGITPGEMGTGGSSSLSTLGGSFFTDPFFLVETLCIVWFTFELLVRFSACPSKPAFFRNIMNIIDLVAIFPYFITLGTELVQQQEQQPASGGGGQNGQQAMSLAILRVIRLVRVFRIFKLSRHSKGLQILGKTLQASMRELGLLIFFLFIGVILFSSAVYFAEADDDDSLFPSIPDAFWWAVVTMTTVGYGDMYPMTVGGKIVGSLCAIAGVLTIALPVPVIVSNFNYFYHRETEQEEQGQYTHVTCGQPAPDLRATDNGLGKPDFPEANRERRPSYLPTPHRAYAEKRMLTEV
T2 sequence (P16390 whole entry): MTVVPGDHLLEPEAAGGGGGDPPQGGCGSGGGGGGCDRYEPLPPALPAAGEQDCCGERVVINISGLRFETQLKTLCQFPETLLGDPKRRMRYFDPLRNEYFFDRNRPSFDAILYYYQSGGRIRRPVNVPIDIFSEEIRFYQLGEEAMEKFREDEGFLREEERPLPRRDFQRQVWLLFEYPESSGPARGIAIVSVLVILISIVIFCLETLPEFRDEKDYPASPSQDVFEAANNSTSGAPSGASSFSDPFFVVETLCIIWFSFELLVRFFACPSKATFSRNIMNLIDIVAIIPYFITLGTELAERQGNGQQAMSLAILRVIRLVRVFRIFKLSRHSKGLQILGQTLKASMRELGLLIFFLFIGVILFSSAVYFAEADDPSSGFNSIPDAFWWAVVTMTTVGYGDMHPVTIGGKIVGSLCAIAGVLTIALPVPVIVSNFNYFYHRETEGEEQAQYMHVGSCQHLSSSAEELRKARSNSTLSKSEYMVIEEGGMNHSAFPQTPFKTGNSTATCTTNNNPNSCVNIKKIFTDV
T3 sequence (P22459 whole entry): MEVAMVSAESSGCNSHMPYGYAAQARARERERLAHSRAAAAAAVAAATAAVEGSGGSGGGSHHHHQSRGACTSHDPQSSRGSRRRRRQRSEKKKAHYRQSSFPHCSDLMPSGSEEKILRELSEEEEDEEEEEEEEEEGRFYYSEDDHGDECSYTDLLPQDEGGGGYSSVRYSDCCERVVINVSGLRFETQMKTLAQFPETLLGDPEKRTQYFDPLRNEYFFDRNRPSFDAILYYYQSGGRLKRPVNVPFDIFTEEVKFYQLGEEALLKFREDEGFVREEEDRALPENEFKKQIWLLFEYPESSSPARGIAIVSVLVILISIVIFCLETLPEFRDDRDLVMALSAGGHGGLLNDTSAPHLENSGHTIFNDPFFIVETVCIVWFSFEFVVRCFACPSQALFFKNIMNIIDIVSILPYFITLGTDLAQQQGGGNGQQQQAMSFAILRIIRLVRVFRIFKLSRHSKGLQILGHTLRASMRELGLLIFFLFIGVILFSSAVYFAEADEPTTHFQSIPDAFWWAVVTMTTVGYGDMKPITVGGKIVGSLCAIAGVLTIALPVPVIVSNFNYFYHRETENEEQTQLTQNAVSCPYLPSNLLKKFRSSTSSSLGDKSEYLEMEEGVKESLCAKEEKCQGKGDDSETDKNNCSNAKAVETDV

Question: Which results are given for `CC[C@H](C)[C@@H]1NC(=O)[C@@H](NC(=O)[C@H](CO)NC(=O)[C@@H](N)CCCNC(=N)N)CSSC[C@@H](C(=O)O)NC(=O)[C@H]([C@@H](C)O)NC(=O)CNC(=O)[C@@H]2CSSC[C@@H]3NC(=O)[C@H](CCC(N)=O)NC(=O)[C@H](Cc4ccccc4)NC(=O)[C@H](C)NC(=O)[C@H]([C@@H](C)O)NC(=O)[C@H](CSSC[C@H](NC(=O)[C@H](Cc4ccccc4)NC(=O)[C@H](CO)NC(=O)[C@H](CC(C)C)NC(=O)[C@H](CCCNC(=N)N)NC(=O)[C@H](Cc4ccc(O)cc4)NC(=O)[C@H](CCCCN)NC(=O)[C@H](CCSC)NC(=O)[C@H](CO)NC(=O)[C@H](Cc4cnc[nH]4)NC(=O)[C@H](CCCCN)NC3=O)C(=O)N[C@@H](CCCNC(=N)N)C(=O)N[C@@H](CCCCN)C(=O)N[C@@H]([C@@H](C)O)C(=O)N2)NC(=O)[C@H](CCCNC(=N)N)NC(=O)[C@H](CO)NC(=O)[C@H](CCCCN)NC(=O)[C@@H]2CCCN2C(=O)[C@H]([C@@H](C)CC)NC(=O)[C@H]([C@@H](C)O)NC(=O)[C@H](CC(=O)O)NC1=O` [ShK, reference compound]?
Answer: IC50 [1]: 165000 ± 8000 pM; IC50 [2]: 13.3 ± 1.4 pM; IC50 [3]: 312 ± 14 pM

Question: What does the source list for `CC[C@H](C)[C@@H]1NC(=O)[C@@H](NC(=O)[C@H](CO)NC(=O)[C@@H](N)CCCNC(=N)N)CSSC[C@@H](C(=O)N[C@@H](C)C(=O)O)NC(=O)[C@H]([C@@H](C)O)NC(=O)CNC(=O)[C@@H]2CSSC[C@@H]3NC(=O)[C@H](CCCCN)NC(=O)[C@H](Cc4ccccc4)NC(=O)[C@H](C)NC(=O)[C@H]([C@@H](C)O)NC(=O)[C@H](CSSC[C@H](NC(=O)[C@H](Cc4ccccc4)NC(=O)[C@H](CO)NC(=O)[C@H](CC(C)C)NC(=O)[C@H](CCCNC(=N)N)NC(=O)[C@H](Cc4ccc(O)cc4)NC(=O)[C@H](CCCCN)NC(=O)[C@H](CCSC)NC(=O)[C@H](CO)NC(=O)[C@H](Cc4c[nH]cn4)NC(=O)[C@H](CCCCN)NC3=O)C(=O)N[C@@H](CCCNC(=N)N)C(=O)N[C@@H](CCCCN)C(=O)N[C@@H]([C@@H](C)O)C(=O)N2)NC(=O)[C@H](CCCNC(=N)N)NC(=O)[C@H](CO)NC(=O)[C@H](CCCCN)NC(=O)[C@@H]2CCCN2C(=O)[C@H]([C@@H](C)CC)NC(=O)[C@H]([C@@H](C)O)NC(=O)[C@H](CC(=O)O)NC1=O` [ShK-234]?
Answer: block of Kv1.6 at 100 nM [1]: ~25%; IC50 [2]: 37 ± 4.6 pM; block of Kv1.4 at 100 nM [3]: <15% block at 100 nM

Question: Which results are given for `CC[C@H](C)[C@@H]1NC(=O)[C@H](CO)NC(=O)[C@H](Cc2c[nH]cn2)NC(=O)[C@H](CCCCN)NC(=O)[C@@H]2CSSC[C@@H]3NC(=O)[C@H]([C@@H](C)O)NC(=O)[C@H](CCCCN)NC(=O)[C@H](CCCNC(=N)N)NC(=O)[C@H](CSSC[C@H](NC(=O)[C@H](CCCNC(=N)N)NC(=O)[C@H](CO)NC(=O)[C@H](CCCCN)NC(=O)[C@@H]4CCCN4C(=O)[C@H]([C@@H](C)CC)NC(=O)[C@H]([C@@H](C)O)NC(=O)[C@H](CC(=O)O)NC(=O)[C@H]([C@@H](C)CC)NC(=O)[C@@H](NC(=O)[C@H](CO)NC(=O)[C@@H](N)CCCNC(=N)N)CSSC[C@@H](C(=O)N[C@@H](C)C(=O)O)NC(=O)[C@H]([C@@H](C)O)NC(=O)CNC3=O)C(=O)N[C@@H]([C@@H](C)O)C(=O)N[C@@H](C)C(=O)N[C@@H](Cc3ccccc3)C(=O)N[C@@H](CCCCN)C(=O)N2)NC(=O)[C@H](Cc2ccccc2)NC(=O)[C@H](CO)NC(=O)[C@H](CC(C)C)NC(=O)[C@H](CCCNC(=N)N)NC(=O)[C@H](Cc2ccc(O)cc2)NC(=O)[C@H](CCCCN)NC1=O` [ShK-235]?
Answer: block of Kv1.6 at 100 nM [1]: ~25%; IC50 [2]: 62 ± 13.2 pM; block of Kv1.4 at 100 nM [3]: <15% block at 100 nM

Question: Which “effect on acute adoptive EAE” value [4] does the source give for kaliotoxin here?
Answer: ameliorate clinical signs
